Nine compounds from ChEMBL document CHEMBL5465560, “Selectivity Literature for EUbOPEN Chemogenomic Library” (2024) can be followed below.

Assay [1] concerns the target T1, Megakaryocyte-associated tyrosine-protein kinase (Homo sapiens) (UniProt P42679).
T1 sequence (whole entry): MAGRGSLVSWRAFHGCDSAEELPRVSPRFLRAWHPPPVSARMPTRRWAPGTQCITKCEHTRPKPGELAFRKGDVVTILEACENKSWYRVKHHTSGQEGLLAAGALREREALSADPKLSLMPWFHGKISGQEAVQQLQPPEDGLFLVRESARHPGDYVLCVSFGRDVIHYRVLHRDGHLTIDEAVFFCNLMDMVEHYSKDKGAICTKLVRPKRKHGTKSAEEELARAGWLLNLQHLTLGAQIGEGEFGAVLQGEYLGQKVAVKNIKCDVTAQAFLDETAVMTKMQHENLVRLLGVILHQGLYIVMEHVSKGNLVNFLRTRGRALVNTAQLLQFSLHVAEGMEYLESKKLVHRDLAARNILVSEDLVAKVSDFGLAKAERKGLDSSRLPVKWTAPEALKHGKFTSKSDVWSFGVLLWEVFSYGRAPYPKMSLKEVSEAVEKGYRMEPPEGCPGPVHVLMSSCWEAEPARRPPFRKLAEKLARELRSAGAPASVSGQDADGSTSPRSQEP
As to the kind of experiment: Selectivity interaction (KinomeScan (DiscoverX)) EUB0000607a MATK. The following applies: at 10 µM.

Assay [2] addresses T1, Megakaryocyte-associated tyrosine-protein kinase (Homo sapiens). The experiment in a line: Selectivity interaction (KinomeScan (DiscoverX)) EUB0000666a MATK. Conditions: at 10 µM.
Assay [3] addresses Calcium/calmodulin-dependent protein kinase type 1 (Homo sapiens) (UniProt Q14012). The experiment in a line: Selectivity interaction (KinomeScan (DiscoverX)) EUB0000229b CAMK1. The following applies: at 10 µM.
Assay [4] has as its target Citron Rho-interacting kinase (Homo sapiens) (UniProt O14578). As to the kind of experiment: Selectivity interaction (KinomeScan (DiscoverX)) EUB0001619a CIT. Conditions: at 1 µM.
Assay [5] concerns the target RAC-alpha serine/threonine-protein kinase (Homo sapiens, UniProt P31749). The experiment in a line: Selectivity interaction (Kinase screening (Nanosyn)) EUB0000604a AKT1.
Assay [6] has as its target T2, Mitogen-activated protein kinase kinase kinase 15 (Homo sapiens) (UniProt Q6ZN16).
T2 sequence (whole entry): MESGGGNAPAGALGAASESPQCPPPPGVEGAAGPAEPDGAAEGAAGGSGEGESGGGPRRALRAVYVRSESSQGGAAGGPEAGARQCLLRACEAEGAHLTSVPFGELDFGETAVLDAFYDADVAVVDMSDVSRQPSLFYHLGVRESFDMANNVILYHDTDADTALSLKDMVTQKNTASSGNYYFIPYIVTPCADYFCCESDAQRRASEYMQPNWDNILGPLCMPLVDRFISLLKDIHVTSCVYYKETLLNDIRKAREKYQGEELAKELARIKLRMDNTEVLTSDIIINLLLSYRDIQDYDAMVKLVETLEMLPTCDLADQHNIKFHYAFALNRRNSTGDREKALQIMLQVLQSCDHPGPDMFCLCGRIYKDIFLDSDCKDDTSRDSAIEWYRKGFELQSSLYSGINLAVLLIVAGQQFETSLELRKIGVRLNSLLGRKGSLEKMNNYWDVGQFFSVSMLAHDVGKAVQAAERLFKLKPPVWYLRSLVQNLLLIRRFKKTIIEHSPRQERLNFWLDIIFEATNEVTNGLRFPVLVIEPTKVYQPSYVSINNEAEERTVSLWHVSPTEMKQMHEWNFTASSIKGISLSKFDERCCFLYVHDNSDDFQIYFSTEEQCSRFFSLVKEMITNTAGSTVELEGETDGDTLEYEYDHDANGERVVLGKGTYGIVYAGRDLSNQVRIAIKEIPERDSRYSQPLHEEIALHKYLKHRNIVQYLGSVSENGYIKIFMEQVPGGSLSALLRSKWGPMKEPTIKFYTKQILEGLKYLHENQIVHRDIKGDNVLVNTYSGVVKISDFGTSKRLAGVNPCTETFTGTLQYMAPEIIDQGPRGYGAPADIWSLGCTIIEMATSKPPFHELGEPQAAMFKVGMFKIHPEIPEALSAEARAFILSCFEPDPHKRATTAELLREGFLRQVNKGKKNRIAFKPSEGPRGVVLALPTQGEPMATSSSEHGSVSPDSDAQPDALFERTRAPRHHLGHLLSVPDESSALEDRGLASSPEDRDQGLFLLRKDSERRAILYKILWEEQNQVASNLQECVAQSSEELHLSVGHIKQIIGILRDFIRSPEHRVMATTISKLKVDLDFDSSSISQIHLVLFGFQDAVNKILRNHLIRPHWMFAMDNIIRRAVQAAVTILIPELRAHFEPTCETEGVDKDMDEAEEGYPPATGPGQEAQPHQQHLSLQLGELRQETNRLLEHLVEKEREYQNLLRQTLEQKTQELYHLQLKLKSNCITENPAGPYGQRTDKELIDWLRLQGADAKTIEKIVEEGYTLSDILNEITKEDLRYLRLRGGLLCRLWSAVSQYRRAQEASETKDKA
As to the kind of experiment: Selectivity interaction (KinomeScan (DiscoverX)) EUB0001049a MAP3K15. The following applies: at 1 µM.

Assay [7] relates to Tyrosine-protein kinase ABL1 (Homo sapiens), P00519 [T315I]. The experiment in a line: Selectivity interaction (KinomeScan (DiscoverX)) EUB0000092b ABL1. Conditions: at 10 µM.
Assay [8] has as its target Proto-oncogene tyrosine-protein kinase ROS (Homo sapiens) (UniProt P08922). As to the kind of experiment: Selectivity interaction (Upstate Kinase Profiler service (Millipore)) EUB0000056c ROS1. Conditions: at 1 µM.
Assay [9] has as its target Serine/threonine-protein kinase 38-like (Homo sapiens) (UniProt Q9Y2H1). The experiment in a line: Selectivity interaction (KinomeScan (DiscoverX)) EUB0000595a STK38L. The following applies: at 10 µM.

Chain of Calcium/calmodulin-dependent protein kinase type 1 (Homo sapiens) (Q14012 whole entry, looked up): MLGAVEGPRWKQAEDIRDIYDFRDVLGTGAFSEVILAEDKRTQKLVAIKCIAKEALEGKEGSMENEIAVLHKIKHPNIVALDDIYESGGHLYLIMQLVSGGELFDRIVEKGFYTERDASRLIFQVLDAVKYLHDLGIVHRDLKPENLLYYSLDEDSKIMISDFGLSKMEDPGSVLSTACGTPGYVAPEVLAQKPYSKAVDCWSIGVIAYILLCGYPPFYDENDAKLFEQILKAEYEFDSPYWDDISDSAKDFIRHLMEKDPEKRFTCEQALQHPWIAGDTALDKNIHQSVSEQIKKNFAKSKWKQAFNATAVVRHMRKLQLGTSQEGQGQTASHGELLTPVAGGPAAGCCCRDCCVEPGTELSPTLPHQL
Chain of Proto-oncogene tyrosine-protein kinase ROS (Homo sapiens) (P08922 whole entry): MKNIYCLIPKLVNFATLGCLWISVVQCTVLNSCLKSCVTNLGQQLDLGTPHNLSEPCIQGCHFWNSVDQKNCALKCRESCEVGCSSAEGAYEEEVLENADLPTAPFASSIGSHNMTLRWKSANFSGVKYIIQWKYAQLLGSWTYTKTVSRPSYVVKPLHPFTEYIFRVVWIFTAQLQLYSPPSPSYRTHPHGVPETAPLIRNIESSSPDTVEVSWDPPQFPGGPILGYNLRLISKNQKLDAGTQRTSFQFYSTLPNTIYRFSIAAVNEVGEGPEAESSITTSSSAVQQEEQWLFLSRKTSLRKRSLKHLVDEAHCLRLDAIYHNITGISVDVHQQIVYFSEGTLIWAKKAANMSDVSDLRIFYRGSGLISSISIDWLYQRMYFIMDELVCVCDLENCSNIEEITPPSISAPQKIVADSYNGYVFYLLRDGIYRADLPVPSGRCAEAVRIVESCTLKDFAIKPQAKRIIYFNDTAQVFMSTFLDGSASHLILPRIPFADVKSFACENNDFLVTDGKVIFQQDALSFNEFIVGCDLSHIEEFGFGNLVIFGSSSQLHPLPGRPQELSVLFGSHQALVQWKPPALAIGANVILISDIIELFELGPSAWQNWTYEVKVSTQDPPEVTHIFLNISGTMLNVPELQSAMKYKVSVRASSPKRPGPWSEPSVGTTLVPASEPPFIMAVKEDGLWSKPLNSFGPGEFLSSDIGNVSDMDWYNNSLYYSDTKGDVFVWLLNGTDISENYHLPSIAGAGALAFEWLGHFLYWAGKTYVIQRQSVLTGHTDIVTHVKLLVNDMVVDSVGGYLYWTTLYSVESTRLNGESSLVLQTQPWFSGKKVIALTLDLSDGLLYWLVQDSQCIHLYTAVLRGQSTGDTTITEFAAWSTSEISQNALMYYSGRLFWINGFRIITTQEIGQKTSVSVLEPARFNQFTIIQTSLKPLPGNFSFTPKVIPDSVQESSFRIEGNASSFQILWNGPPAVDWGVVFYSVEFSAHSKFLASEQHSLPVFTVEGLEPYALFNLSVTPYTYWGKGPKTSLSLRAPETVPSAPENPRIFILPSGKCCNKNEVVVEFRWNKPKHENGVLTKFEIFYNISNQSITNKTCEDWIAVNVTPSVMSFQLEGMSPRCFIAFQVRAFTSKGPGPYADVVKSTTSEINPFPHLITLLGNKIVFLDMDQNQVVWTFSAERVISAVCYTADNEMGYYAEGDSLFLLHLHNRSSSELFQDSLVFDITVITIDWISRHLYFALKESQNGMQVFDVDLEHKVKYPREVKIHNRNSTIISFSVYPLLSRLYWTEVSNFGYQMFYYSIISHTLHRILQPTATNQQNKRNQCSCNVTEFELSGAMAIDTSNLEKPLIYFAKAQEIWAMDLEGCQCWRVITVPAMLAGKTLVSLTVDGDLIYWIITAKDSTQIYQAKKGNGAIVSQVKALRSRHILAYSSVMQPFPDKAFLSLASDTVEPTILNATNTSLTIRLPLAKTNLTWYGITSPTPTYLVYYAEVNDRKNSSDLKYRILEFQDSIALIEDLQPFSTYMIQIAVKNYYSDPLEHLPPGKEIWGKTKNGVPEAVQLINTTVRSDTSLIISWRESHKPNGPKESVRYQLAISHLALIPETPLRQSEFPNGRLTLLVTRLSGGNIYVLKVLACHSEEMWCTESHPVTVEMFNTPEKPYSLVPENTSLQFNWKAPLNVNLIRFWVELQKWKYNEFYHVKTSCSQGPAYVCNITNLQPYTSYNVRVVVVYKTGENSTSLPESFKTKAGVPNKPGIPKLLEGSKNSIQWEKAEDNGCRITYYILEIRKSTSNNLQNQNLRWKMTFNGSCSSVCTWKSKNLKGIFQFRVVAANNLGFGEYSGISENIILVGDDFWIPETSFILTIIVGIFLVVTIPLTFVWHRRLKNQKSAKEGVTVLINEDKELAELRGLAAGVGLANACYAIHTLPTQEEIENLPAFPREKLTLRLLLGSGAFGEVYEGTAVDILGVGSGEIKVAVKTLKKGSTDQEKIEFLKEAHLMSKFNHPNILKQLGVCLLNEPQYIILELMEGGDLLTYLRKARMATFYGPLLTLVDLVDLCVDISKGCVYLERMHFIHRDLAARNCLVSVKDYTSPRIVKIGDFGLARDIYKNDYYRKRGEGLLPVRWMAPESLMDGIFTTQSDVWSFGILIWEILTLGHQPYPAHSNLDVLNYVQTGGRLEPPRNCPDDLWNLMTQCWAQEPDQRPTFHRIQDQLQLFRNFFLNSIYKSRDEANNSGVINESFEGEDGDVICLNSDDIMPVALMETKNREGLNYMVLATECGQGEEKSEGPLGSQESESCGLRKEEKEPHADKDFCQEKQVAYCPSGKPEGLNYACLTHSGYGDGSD
Chain of Serine/threonine-protein kinase 38-like (Homo sapiens) (Q9Y2H1 2-464 limits assumed): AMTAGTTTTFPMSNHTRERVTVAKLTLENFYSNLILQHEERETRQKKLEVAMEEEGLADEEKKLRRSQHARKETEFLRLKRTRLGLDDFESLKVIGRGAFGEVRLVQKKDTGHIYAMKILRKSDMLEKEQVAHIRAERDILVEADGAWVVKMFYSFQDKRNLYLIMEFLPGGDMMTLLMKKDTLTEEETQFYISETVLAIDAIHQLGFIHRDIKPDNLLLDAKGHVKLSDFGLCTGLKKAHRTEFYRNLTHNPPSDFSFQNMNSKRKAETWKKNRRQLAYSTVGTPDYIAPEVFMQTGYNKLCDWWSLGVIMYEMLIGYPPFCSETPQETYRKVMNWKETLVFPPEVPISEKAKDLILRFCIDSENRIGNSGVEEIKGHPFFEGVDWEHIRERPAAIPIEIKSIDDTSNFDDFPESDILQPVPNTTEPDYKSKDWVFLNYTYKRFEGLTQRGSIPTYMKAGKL
Chain of RAC-alpha serine/threonine-protein kinase (P31749 whole entry): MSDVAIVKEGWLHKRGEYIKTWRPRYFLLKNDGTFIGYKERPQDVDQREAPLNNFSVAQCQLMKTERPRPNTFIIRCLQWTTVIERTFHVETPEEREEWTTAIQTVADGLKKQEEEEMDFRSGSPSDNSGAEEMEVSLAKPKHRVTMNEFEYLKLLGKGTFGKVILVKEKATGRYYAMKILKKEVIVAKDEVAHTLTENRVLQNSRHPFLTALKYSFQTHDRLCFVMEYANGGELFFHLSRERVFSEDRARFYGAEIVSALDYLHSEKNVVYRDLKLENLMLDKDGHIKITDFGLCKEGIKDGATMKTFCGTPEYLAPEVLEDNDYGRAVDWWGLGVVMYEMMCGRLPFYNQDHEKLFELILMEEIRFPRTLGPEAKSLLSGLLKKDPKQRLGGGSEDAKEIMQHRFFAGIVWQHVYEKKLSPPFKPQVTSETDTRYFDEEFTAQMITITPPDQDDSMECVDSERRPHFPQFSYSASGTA

With `CNC(=O)Nc1ccc(-c2nc(N3CC4CCC(C3)O4)c3cnn(C4CCC5(CC4)OCCO5)c3n2)cc1`, the % of control in [1] is 100%.

On to `O=C(NOC[C@H](O)CO)c1ccc(F)c(F)c1Nc1ccc(I)cc1F`, for which the % of control in assay [2] came out at 100%.

Take `COc1cc(N(C)c2ccnc3ccc(C(F)(F)F)cc23)cc(OC)c1OC`: the % binding in [3] is 59%.

In turn, `N#Cc1cccc(-c2c[nH]c3ncnc(N4CCOCC4)c23)c1` returned a % of control in [4] of 100%.

For `Cc1cnc(Nc2ccc(F)cc2Cl)nc1-c1c[nH]c(C(=O)N[C@H](CO)c2cccc(Cl)c2)c1`, in [5], the % of inhibition was 0%.

`COc1cc(Nc2nc(C)cc(-c3cnn4nc(OC)ccc34)n2)cc(C(F)(F)F)c1` gave a % of control in assay [6] of 100%.

The compound `CCC(=O)N1CCN(c2ccc(-n3c(=O)ccc4cnc5ccc(-c6cnc7ccccc7c6)cc5c43)cc2C(F)(F)F)CC1` displayed a % of control in assay [7] of 100%.

For the compound `Cc1ccc(-c2ccc3c(ccc4sc5c(c43)NC[C@@H](C)NC5=O)n2)cn1`, in assay [8], the % of inhibition was -15%.

`COCC(=O)NC/C=C/c1ccc2ncnc(Nc3ccc(Oc4ccc(C)nc4)c(C)c3)c2c1` [CP-724714] returned a % of control in [9] of 100%.
